Source: patent publication US20050266106A1, “Use of fermented wheat germ extract as anti-inflammatory agent” (priority 2002, published 2005)

Tested on: adjuvant arthritis (AA)
Test: histological studies of joints of AA rats
Assay type: in vivo
Experimental: The affected joints of the right hind foot pad together with the epiphyses of the bones and the surrounding fibrous and muscular tissues were fixed in buffered neutral 4% formalin. Decalcification was performed by using EDTA and the samples were embedded into paraffin. 8 μm thin longitudinal sections were cut and the sections were stained with hemotoxiline (H) and eosine (E). In the selected positive control and in the treated cases an immunoperoxidase reaction was performed to show CD4 and CD8 positive T-lymphocytes. The used antibody was the product of Santa Cruz (Santa Cruz, Calif., USA), applied in 1:100 dilution.
There was no significant difference between the groups receiving 24-hour and 14-day pretreatment, respectively.

| SMILES | Histological grade (average 1 to 3) of inflammatory infiltrates (2 × 0.05 mg/kg/day, 14-day pretreatment) | Histological grade (average 1 to 3) of inflammatory infiltrates (2 × 0.05 mg/kg/day, 24-hour pretreatment) | Histological grade (average 1 to 3) of inflammatory infiltrates (2 × 0.5 mg/kg/day, 14-day pretreatment) | Histological grade (average 1 to 3) of inflammatory infiltrates (2 × 0.5 mg/kg/day, 24-hour pretreatment) |
| --- | --- | --- | --- | --- |
| C[C@@H]1C[C@H]2[C@@H]3CCC4=CC(=O)C=C[C@]4(C)[C@@]3(F)[C@@H](O)C[C@]2(C)[C@@]1(O)C(=O)CO [Dexamethasone] | 1.2 | 1.4 |  |  |
| COc1ccc2c(c1)c(CC(=O)O)c(C)n2C(=O)c1ccc(Cl)cc1 [Indomethacin] |  |  | 1.2 | 1.0 |
